Data as given in publication PMC10341795, “N-Methyl Costaricine and Costaricine, Two Potent Butyrylcholinesterase Inhibitors from Alseodaphne pendulifolia Gamb” (International Journal of Molecular Sciences, 2023).
“Also recorded” adds a separate entry of the source. Where two headings read alike, the source gives them in different places.

What was measured:
[1] = biological target: T1, AChE from Electrophorus electricus (Electrophorus electricus, UniProt O42275); assay: biochemical; settings: for Selectivity Index AChE: IC50 (BChE)/IC50 (AChE); for inhibition at 100 µM: read-out: Percentage Inhibition at 100 µM, AChE, 100 µM
T1 construct: purchased Sigma-Aldrich Co. LLC; (St. Louis, MO, USA)
T1 sequence (O42275 24-633): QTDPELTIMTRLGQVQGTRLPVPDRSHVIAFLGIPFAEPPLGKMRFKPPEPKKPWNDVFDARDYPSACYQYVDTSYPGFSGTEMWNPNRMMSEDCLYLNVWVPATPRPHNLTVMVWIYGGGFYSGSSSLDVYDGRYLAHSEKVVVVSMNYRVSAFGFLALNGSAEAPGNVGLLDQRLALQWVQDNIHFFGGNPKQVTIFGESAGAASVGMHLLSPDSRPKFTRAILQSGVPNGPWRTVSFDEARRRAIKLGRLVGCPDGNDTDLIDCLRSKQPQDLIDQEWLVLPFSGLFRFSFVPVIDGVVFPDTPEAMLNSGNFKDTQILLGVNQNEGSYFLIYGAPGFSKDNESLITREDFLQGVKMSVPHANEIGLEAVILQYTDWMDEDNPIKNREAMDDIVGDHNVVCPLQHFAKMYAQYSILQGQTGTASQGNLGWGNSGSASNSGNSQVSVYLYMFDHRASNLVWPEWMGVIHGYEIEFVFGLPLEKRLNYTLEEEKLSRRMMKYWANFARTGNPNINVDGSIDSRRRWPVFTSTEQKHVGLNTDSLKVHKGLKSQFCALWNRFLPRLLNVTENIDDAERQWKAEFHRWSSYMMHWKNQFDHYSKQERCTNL
Protocol: (§1) The cholinesterase inhibitory activities of the extracts and fompounds 1–6 were performed as previously described. AChE from Electrophorus electricus and BChE from equine serum were purchased from Sigma-Aldrich Co. LLC. (St. Louis, MO, USA). An amount of 0.1 M of sodium phosphate buffer (pH 8) was added to a 96-well microplate followed by the sample and 1U of the AChE or BChE. Then, 10 mM of 5,5′-dithiobis(2-nitrobenzoic acid) (DTNB) was added followed by 14 mM of acetylthiocholine iodide or S-butyrylthiocholine chloride. The final concentration of DMSO was 1%.

BChE from equine serum = biological target: T2, BChE from equine serum (Equus caballus, UniProt P81908); assay: biochemical; format: biochemical; settings: for Selectivity Index BChE: IC50 (AChE)/IC50 (BChE); for BChE potency relative to galantamine: comparison of IC50 values; for Cholinesterase selectivity (in words): from selectivity indices, AChE vs BChE; for inhibition at 100 µM: read-out: Percentage Inhibition at 100 µM, BChE, 100 µM
T2 construct: AChE from Electrophorus electricus and BChE from equine serum were purchased from Sigma-Aldrich Co. LLC; purchased Sigma-Aldrich Co. LLC; (St. Louis, MO, USA); host or cells: equine serum
T2 sequence (P81908 whole entry): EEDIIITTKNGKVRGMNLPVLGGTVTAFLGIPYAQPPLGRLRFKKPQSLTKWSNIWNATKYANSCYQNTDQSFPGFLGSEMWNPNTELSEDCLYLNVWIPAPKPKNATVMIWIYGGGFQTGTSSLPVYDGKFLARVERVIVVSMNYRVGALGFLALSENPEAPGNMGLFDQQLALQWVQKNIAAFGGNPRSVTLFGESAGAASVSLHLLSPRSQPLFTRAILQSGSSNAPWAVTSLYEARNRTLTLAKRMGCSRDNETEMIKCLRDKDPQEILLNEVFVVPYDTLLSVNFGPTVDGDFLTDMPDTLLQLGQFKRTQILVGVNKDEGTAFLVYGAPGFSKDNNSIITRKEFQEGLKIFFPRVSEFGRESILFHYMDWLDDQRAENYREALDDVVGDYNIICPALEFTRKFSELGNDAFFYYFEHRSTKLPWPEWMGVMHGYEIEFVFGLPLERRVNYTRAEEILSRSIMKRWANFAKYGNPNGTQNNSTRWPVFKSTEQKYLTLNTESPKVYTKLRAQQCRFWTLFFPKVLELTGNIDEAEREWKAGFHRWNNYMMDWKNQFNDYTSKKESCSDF
Protocol: as §1

BChE = biological target: T3, BChE (Equus caballus, UniProt P81908); assay: Enzyme kinetic study against BChE (Lineweaver-Burk and secondary plots); format: biochemical; settings: for Mode of inhibition against BChE: Lineweaver-Burk plot
T3 construct: AChE from Electrophorus electricus and BChE from equine serum were purchased from Sigma-Aldrich Co. LLC; purchased Sigma-Aldrich Co. LLC; (St. Louis, MO, USA); host or cells: equine serum
T3 sequence (P81908 whole entry): as above
Protocol: as §1, with “1%. Galanthamine was used as the standard for validation and result comparison. The absorbance was measured using a Tecan Infinite 200 Pro Microplate Spectrometer at 412 nm for 30 min.” for “1%.”
The enzyme kinetic studies of compounds 1 and 2 against BChE were performed in a similar manner to the in vitro BChE inhibition assay. The enzyme inhibition kinetic was carried out in the presence of three concentrations of the inhibitors, compounds 1 and 2, at various concentrations of the substrate, S-butyrylthiocholine chloride by constructing a Lineweaver–Burk plot (reciprocal plots of 1/V versus 1/[S]). The inhibition constant (Ki) was estimated from the secondary plot of the Lineweaver–Burk plot.

SMILES	Selectivity Index AChE [1]	IC50 ([1]; mean ± SD (n = 3), read-out: IC50 AChE)	inhibition at 100 µM ([1]; mean ± SD (n = 3))	Selectivity Index BChE (BChE from equine serum)	BChE potency relative to galantamine (BChE from equine serum)	Cholinesterase selectivity (in words) (BChE from equine serum)	IC50 (BChE from equine serum; mean ± SD (n = 3), read-out: IC50 BChE)	Mode of inhibition against BChE (BChE)	Ki (BChE; derived from secondary plots of Lineweaver-Burk plots, read-out: Inhibition constant Ki against BChE)	IC50 (BChE from equine serum)	inhibition at 100 µM (BChE from equine serum; mean ± SD (n = 3))	IC50 [1]	Ki (BChE)	Fold higher affinity to BChE compared to compound 1 (BChE; ratio of Ki values)
COc1cc2c(cc1O)C(Cc1ccc(Oc3cc(CC4c5cc(O)c(OC)cc5CCN4C)ccc3OC)cc1)NCC2 (stereo not shown) [Compound 1, N-methyl costaricine]	0.15	22.8 ± 1.25 µM	> 70%	6.48	two-fold more potent than galantamine	BChE selective inhibitors	3.51 ± 0.8 µM	mixed-mode inhibitors; also recorded: mixed-mode inhibition	0.67 µM					
COc1ccc2c(c1OC)-c1c(OC)c(OC)cc3c1C(C2)NCC3 (stereo not shown) [Compound 3, hernagine]			< 10%							32.9 ± 0.99 µM	88.87 ± 0.56%			
COc1cc2c3c(c1O)-c1c(ccc(OC)c1OC)C[C@@H]3N(C)CC2 [Compound 5, corydine]			29.7 ± 1.85%							52.9 ± 4.11 µM	77.9 ± 1.73%			
COc1cc2c(cc1O)[C@@H](Cc1ccc(Oc3cc(C[C@H]4NCCc5cc(OC)c(O)cc54)ccc3OC)cc1)NCC2 [Compound 2, costaricine]	0.17		> 70%	6.03	two-fold more potent than galantamine	BChE selective inhibitors		mixed-mode inhibitors; also recorded: mixed-mode inhibition		2.9 ± 0.56 µM		17.5 ± 2.16 µM	0.05 µM	13 fold
COc1ccc2c(c1OC)-c1c(OC)c(OC)cc3c1C(C2)N(C)CC3 (stereo not shown) [Compound 4, N-methyl hernagine]			23.1 ± 8.39%							49.7 ± 3.95 µM	77.8 ± 3.73%			
